Data from patent publication US20260232847A1, “Nanoparticles For Imaging And Treatment Of Arthritis And Inflammatory Joint Diseases” (Cornell University, priority 2023, published 2026).

Columns and labels:
[1] = in vitro; cited from earlier work
[2] = in vivo; cited from earlier work
[3] = In vivo joint clearance pharmacokinetics after intraarticular injection, longitudinal IVIS fluorescence imaging; design: species or system rat
Description: Animals. All procedures were performed according to protocols approved by the Institutional Animal Care and Use Committee (IACUC) or Cornell University. Sprague Dawley male rats ([…], 300-325 g; Charles River Laboratories, Wilmington, MA) were housed in pairs under a standard 12 h light/dark cycle starting at 6:00 a.m. The animals were allowed to move freely in their cages, fed a low-fluorescence commercial diet (Teklad 2914) and were allowed access to tap water.
Animal Study Design. Rats were randomly assigned to (1) unoperated controls (naïve) and (2) those receiving ipsilateral anterior cruciate ligament transection (ACLT) and contralateral sham to model arthritic pathological joint changes (FIGS. 9A and B). Naïve rats were further split into pilot studies for intraarticular bilateral injection of Cy5 free fluorophore (n=2), unilateral C′ Dot injection with contralateral saline (n=4), and bilateral C′ Dot injection (n=4). Animals that received bilateral surgery were further split into groups where one group received no intraarticular injections (n=4) and one group received bilateral intraarticular injection of C′ Dots one week post-operatively (n=6). Selected animals underwent ACLT surgery on a randomly assigned knee via an open surgical approach under 2.5% isoflurane anesthesia at 1 L/min O2, as previously described. Complete transection of the ACL was confirmed by a cranial drawer test. A single dose of Ethiqa XR (slow release buprenorphine) was administered subcutaneously at 0.65 mg/kg just prior to ACLT surgery. The animals could ambulate, eat, and drink ad libitum after surgery.
Intraarticular injection. Under 3% isoflurane anesthesia, the lower abdominal region (distal to sternum) including the front and back of both stifles was clipped to remove fur and sterilized with three alternating wipes of iodine and ethanol. […]
In vivo longitudinal fluorescence imaging. Longitudinal fluorescence images of rats receiving Cy5 or C′ Dot intraarticular injections were recorded using the In Vivo Imaging System (IVIS) Kinetic (Perkin Elmer; Waltham, MA) over one week for Cy5 injection at the following timepoints: 0, 1, 2, 4, 8, 12, 24, 48, and 72 h, and at 7 d (FIG. 9S3). […] Each week, rat fur was clipped as described above and animal weights were recorded. […] Fluorescence was set at 640 nm/680 nm excitation/emission optimized for Cyanine-5 and C′ Dots.
IVIS image analysis. […] Total Radiant Efficiency (TRE) (area sum of ((p/sec/cm^2/sr)/(ρW/cm^2))) was recorded for each stifle at each time point for the duration of imaging. Average TRE from saline-injected stifles (n=4) was subtracted from all stifle TRE measurements as tissue fluorescence background. […]

time constant τ, single exponential decay ([3]; naïve knees, Eq 2) [h] | time after which fluorescence was undetectable ([3]; naïve rat knees) [days] | time of signal peak ([3]; naïve rat knees, Cy5 dye injection) [h] | half-life t1/2,1 ([3]; t1/2=ln(2)*τ) [h] | Compound | duration of anti-inflammatory effects [1] [days] | half-life in the knee / joint half-life [2] [h]
 |  |  |  | anakinra: established DMARD, anakinra (Kineret) | 2 | 24
0.6 | 3 | 0 | 0.4 | CN1C(=CC=CC=CC2=[N+](CCCCCC(=O)O)c3ccc(S(=O)(=O)O)cc3C2(C)C)C(C)(C)c2cc(S(=O)(=O)[O-])ccc21 [Cy5, Sulfo-Cyanine-5-carboxylic acid] |  | 
